In PubChem BioAssay (NCI):
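Results reflect a 48-hour exposure of cells in 96-well plates to compound at five concentrations. Definition used: TGI = concentration required for complete inhibition of growth.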

What was measured:
Assay in all cases: NCI anticancer screen, dose series, 48 h
[1] = tested on: A498 renal
[2] = tested on: HCT-15 colon
[3] = tested on: HOP-92 NSCLC
[4] = tested on: OVCAR-4 ovarian
[5] = tested on: PC-3 prostate
[6] = tested on: RPMI-8226 leukemia
[7] = tested on: SF-295 CNS
[8] = tested on: SK-MEL-2 melanoma
[9] = tested on: SN12C renal
[10] = tested on: T-47D breast

Compound | TGI [1] [µM] | TGI [2] [µM] | TGI [3] [µM] | TGI [4] [µM] | TGI [5] [µM] | TGI [6] [µM] | TGI [7] [µM] | TGI [8] [µM] | TGI [9] [µM] | TGI [10] [µM]
Cc1cccc2c(N)c3cccc(C(=O)NCC[N+](C)(C)Cc4ccc(S(C)(=O)=O)cc4)c3nc12 | 65 | > 100 | > 100 | > 100 | > 100 | > 45.4 | > 100 | > 100 | > 100 | > 100
CC(O)CC(=O)CO[C@H]1[C@H](O)[C@@H](O)[C@@H](O)[C@@H]2NC(=O)c3c(cc4c(c3O)OCO4)[C@H]21 (stereo partly drawn) | 0.072 |  | 0.64 | 0.287 | 0.303 | 0.147 | 0.314 | 0.261 | 0.784 | 0.109
CC(=O)c1cc2c(s1)C(=O)c1ccsc1C2=O | 12.6 | 0.367 | 5.04 | 2.56 | 1.15 | 49.7 | 0.307 | 1.37 | 0.352 | 6.82
CCOc1cc(/C=N/c2nc3cc4sc(/N=C/c5ccc(O)c(OCC)c5)nc4cc3s2)ccc1O | > 100 | > 100 | > 100 | > 100 | > 100 | > 100 | > 100 | > 100 | > 100 | > 100
CCOC(CN(C)C(=O)Nc1ccc(Cl)c(Cl)c1)OCC | > 10 | > 10 | > 10 | > 10 | > 10 | > 10 | > 10 | > 10 | > 10 | > 10
O=C(c1cc(Cl)cc(Cl)c1)N(Cc1cccnc1)C(=S)N(Cc1cccnc1)C(=O)c1cc(Cl)cc(Cl)c1 | 81.2 | 83.3 | > 100 | 89.6 | 60.6 | > 100 | > 100 | 99.2 | > 100 | > 100
COc1ccc2nc3cc([N+](=O)[O-])ccc3c(NNc3ccc([N+](=O)[O-])cc3)c2c1 | 0.382 | > 100 | 67.7 | > 100 | > 100 | > 71.5 | > 100 | > 96.2 | > 100 | > 100
CN1C(=O)N/C(=C\c2ccc(S(=O)(=O)N/N=C/c3ccccc3)cc2)C1=O | > 100 | > 100 | 75.5 | > 100 | > 100 | > 100 | > 100 | > 100 | > 100 | > 100
Cc1cc(O)c2c(c1)C(C1OC(CO)C(O)C(O)C1O)c1cc(O)cc(O)c1C2=O (stereo not drawn) | > 100 | > 100 | > 100 | > 100 | > 100 | > 100 | > 100 |  | > 100 | > 100
COc1ccc(OC)c(N=Cc2cc(OC)c(OC)c(OC)c2)c1 | > 100 | > 100 | > 78 | > 100 | > 100 | > 76.6 | > 100 | > 100 | > 100 | > 100
C=C1C2C[C@@H]3O[C@H]4C[C@H]5O[C@@]6(C[C@@H]7O[C@]8(C[C@H](C)[C@@H]9O[C@@H]%10CC(C=O)O[C@@H]%10C[C@@H]9O8)C[C@H](C)[C@@H]7O6)C[C@H]5O[C@H]4[C@H](C)[C@H]3OC(=O)C[C@H]3CC[C@@H]4OC5[C@H]6O[C@]7(CC[C@H]8CC(=C)[C@H](CC[C@@H](C[C@H]1C)O2)O8)CC6O[C@@H]5[C@@H](O7)[C@H]4O3 (stereo partly drawn) | > 1 | 0.00609 | > 0.42 | > 1 | > 1 | 0.000326 | > 1 |  | > 1 | > 1
COC(=O)CN=C1NC(=S)N(Cc2ccc(OC)cc2)C12CCCC2 | > 100 | > 100 | > 100 | > 100 | > 100 | > 100 | > 100 | > 100 | > 100 | > 100
CCCCCCCCCC(=O)NCCc1c[nH]c2ccc(OC)cc12 | 29.9 | 36.2 | 31.3 | > 100 | 28.9 | 67 | 32 | 30.5 | 33.1 | 54
O=C1CNc2cc(N3CCOCC3)ccc2N1 | > 100 | > 100 | > 100 | > 100 | > 100 | > 100 | > 100 | > 100 |  | > 100
Brc1c2c(c(Br)c3nsnc13)N=S=N2 | > 96.4 | 60 | 44.8 | > 55.7 | > 100 | 78.1 | > 70.8 | 51 | 32.8 | > 66.6
O=S(=O)(O)c1ccc(Nc2ccnc3ccccc23)cc1 | > 100 | > 100 | > 100 | > 100 | > 100 | > 100 | > 100 | > 100 | > 100 | > 100
CCCCCCc1cc2cc(C(=O)NCc3ccccc3)c(=N)oc2cc1O | > 100 | > 100 | > 100 | > 100 | > 100 | > 100 |  | > 100 | > 100 | > 100
COc1ccc(C(OC(=O)[C@H](O[Si](C)(C)C(C)(C)C)[C@@H](NC(=O)c2ccccc2)c2ccccc2)c2ccc(OC)cc2)cc1 | > 100 | > 100 | > 100 | > 100 | > 100 | 25.1 | > 100 | > 100 | > 100 | > 100

Compound | TGI [1] [µM] | TGI [2] [µM] | TGI [3] [µM] | TGI [4] [µM] | TGI [5] [µM] | TGI [6] [µM] | TGI [7] [µM] | TGI [8] [µM] | TGI [9] [µM] | TGI [10] [µM]
COc1ccc(C2CC(c3ccc(NS(=O)(=O)c4cc([N+](=O)[O-])ccc4C)cc3)=NN2S(=O)(=O)c2cc([N+](=O)[O-])ccc2C)cc1 (stereo not drawn) | > 100 | > 100 | > 100 | > 100 | > 100 | > 100 | > 100 | > 100 | > 100 | > 100
CC1=NN(c2cccc(Cl)c2)C2(C1=Cc1cccs1)C(Cl)C(=O)N2c1nc2ccccc2s1 (stereo not drawn) | 43.5 | 51.7 | 52.7 | > 100 | 48.7 | 43.6 | 55.9 | 36.5 |  | > 100
O=C(/C=C\c1ccsc1)c1ccccc1 | 15.5 | 14.6 | 41.4 | 16.4 | 24.1 | 7.32 | 29.3 | 34.4 | 24.6 | 19.7
O=C(O)C1CC(C2CCCCN2)CN2CCCCC12 (stereo not drawn) | > 100 | > 100 | > 100 | > 100 | > 100 | > 100 | > 100 | > 100 | > 100 | > 100
CCCC(=O)N(C)N=Nc1ccc(C(=O)OCC)cc1 | > 100 | > 100 | > 100 | > 100 | > 100 | > 100 | > 100 | > 100 | > 100 | > 100
C[C@@H](Oc1ccc(Oc2cnc3ccc(Cl)cc3n2)cc1)C(=O)O | > 100 | > 100 | > 100 | > 100 | > 100 | > 100 | > 100 | > 100 | > 100 | > 100
CC(C)C1CC(CO)(CNc2nc(N)nc(Cl)c2/C=N\O)C1 (stereo not drawn) | 34.6 | 32.7 | 35.2 | 28.3 | 26.5 | 31.9 | > 68.2 | 26.5 | > 89.5 | 4.91
COC(=O)[C@H](C)NC(=O)C1(CNC(=O)[C@H](C)NC(=O)OC(C)(C)C)Cc2ccccc2-c2ccccc2C1 | > 71.1 | 31.1 | 21.2 | > 63.5 | > 75.4 | 23.9 | 51.6 | > 68.9 | 34.6 | > 62
COc1ccc(/C=C2\C[C@H]3[C@@H]4CC=C5C[C@@H](OC(C)=O)CC[C@]5(C)[C@H]4CC[C@]3(C)C2=O)cc1OC | > 100 | > 100 | > 100 | > 100 | > 100 | > 100 | > 100 | > 100 | > 100 | > 100
CCOC(=O)NC(Nc1ccc(S(=O)(=O)Nc2ccc(OC)nn2)cc1)(C(F)(F)F)C(F)(F)F | 54.6 | > 100 | 73.2 | > 100 | > 100 | 54.8 | > 100 |  | 83.9 | > 100
O=S(=O)(Nc1nccs1)c1ccc([As](=O)(O)O)cc1 | > 100 | > 100 | > 100 | > 100 | > 100 | > 100 | > 100 | > 100 | > 100 | > 100
O=C1C(Cl)=C(N2CCN(CCOCCO)CC2)C(=O)c2ccccc21 | 33.4 | 24.4 | 2.89 | 6.26 | 31.9 | > 26.9 | 32 | 23 | 28.8 | 3.34
CC(=O)Nc1c2sscc-2n(C)c1=O | 3.27 | 2.66 | 3.7 | 2.96 | 2.97 | 4.48 | 2.65 | 3.36 | 3.37 | 3.19
C/C(=N\Nc1nc2ccccc2o1)c1ncccn1 | 15.8 | 20.3 | 16.6 | 10.2 | 19.9 | 0.0363 | 6.06 | 13.6 | 15.2 | 28.5
O=C(NNC(=S)Nc1ccc(Cl)cc1)C12CC3CC(CC(C3)C1)C2 | 22.9 | 42.5 | 56.7 | 54.5 | 19.2 | 2.28 | 26.6 | 38.2 | 28.7 | 41.4
O=C1C=CC(=O)c2c(O)c(NCCO)c(Cl)c(O)c21 | > 10 | 6.47 | > 10 | 1.49 | > 10 | > 10 | 4.81 | > 6.68 | > 5.55 | > 7.77
O=C(CCc1ccc(O)c(O)c1)NCCc1ccccc1 | > 100 | > 100 | > 100 | > 54.2 | > 51.9 | > 76.1 | > 100 | > 93.7 | > 31.6 | > 100
O=C(CC(Cc1ccccc1)c1ccc(Oc2ccccc2)cc1)Nc1cccc(Cl)c1 (stereo not drawn) | 26.3 | > 100 | 5.51 | > 100 | 27.2 | 17.3 | 15.4 | 13.6 | > 100 | 8.49
